Assay results: patent US20170253581A1, “SUBSTITUTED HETEROCYCLES AS c-MYC TARGETING AGENTS” (Northwestern University, priority 2016, published 2017)

Target: Myc/Max binding to DNA (Homo sapiens, UniProt P01106)
Assay: Electrophoretic mobility shift assay (EMSA) of Myc/Max binding to DNA
Format: biochemical
Details: for remaining activity at 200 µM: read-out: Bound DNA (%) (200uM); for remaining activity at 100 µM: 100 uM test compound, read-out: Bound DNA (%) (100uM)
Experimental: We also tested our best hit compound Min9 (NUCC-0176234) and newly synthesized analogs for effects of these compounds on Myc/Max binding to DNA in electrophoretic mobility shift assays (EMSAs). (See FIG. 5a and FIG. 5b). We expected the active compounds to impair Myc/Max binding to DNA. Several strucutural analogs of Min9 were tested over multiple doses for inhibiting Myc-DNA binding and we observed a dose-dependent inhibition. (See FIG. 5c).
Additional compounds were synthesized and tested in the EMSA assay at concentrations of 200 μM, 100 μM, and 50 μM.

Myc/Max binding to DNA, sequence (P01106 whole entry): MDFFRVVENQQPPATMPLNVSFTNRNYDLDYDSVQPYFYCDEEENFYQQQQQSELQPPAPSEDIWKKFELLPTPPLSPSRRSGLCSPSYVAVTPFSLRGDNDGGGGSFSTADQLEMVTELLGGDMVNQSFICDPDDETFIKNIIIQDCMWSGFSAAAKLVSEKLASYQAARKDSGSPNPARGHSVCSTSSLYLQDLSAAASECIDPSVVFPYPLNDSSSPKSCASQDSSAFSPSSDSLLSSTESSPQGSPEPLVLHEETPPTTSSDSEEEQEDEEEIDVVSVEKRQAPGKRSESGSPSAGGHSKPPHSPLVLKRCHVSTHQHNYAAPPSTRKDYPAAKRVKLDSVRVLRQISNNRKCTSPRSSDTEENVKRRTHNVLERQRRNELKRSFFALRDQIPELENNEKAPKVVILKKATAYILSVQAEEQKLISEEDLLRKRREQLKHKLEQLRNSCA

| remaining activity at 100 µM (EMSA) | SMILES | further results |
| --- | --- | --- |
| – | CCc1ccc(Oc2c[nH]nc2-c2ccc(OCc3ccc(Cl)cc3)cc2O)cc1 [NUCC-0176243] | remaining activity at 200 µM (EMSA, 200 uM test compound): 19% |
| – | CCc1ccc(Oc2c[nH]nc2-c2ccc(OCc3ccc(C(F)(F)F)cc3)cc2O)cc1 [NUCC-0176244] | remaining activity at 200 µM (EMSA, 200 uM test compound): 20% |
| 36% | CCc1ccc(Oc2c(-c3ccc(OCCc4cccc(C(F)(F)F)c4)cc3O)n[nH]c2C(F)(F)F)cc1 [NUCC-0176245] | IC50: 95 µM; remaining activity at 200 µM (EMSA, 200 uM test compound): 0% |
| – | CCc1ccc(Oc2c[nH]nc2-c2ccc(OCc3cnn(C)c3)cc2O)cc1 [NUCC-0176246] | remaining activity at 200 µM (EMSA, 200 uM test compound): 87% |
| – | Oc1cc(OCc2ccc(Cl)cc2)ccc1-c1n[nH]cc1Oc1ccccc1 [NUCC-0176247] | remaining activity at 200 µM (EMSA, 200 uM test compound): 18% |
| – | Cc1[nH]nc(-c2ccc(OCc3cnn(C)c3)cc2O)c1Oc1ccccc1 [NUCC-0176249] | remaining activity at 200 µM (EMSA, 200 uM test compound): 85% |
| – | Oc1cc(OCc2ccncc2)ccc1-c1n[nH]cc1Oc1ccccc1 [NUCC-0176251] | remaining activity at 200 µM (EMSA, 200 uM test compound): 62% |
| – | Cc1[nH]nc(-c2ccc(OCc3ccncc3)cc2O)c1Oc1ccccc1 [NUCC-0176252] | remaining activity at 200 µM (EMSA, 200 uM test compound): 87% |
| – | Cc1[nH]nc(-c2ccc(OCc3ccc(Cl)cc3)cc2O)c1Oc1ccccc1 [NUCC-0176253] | remaining activity at 200 µM (EMSA, 200 uM test compound): 39% |
| – | CCc1ccc(Oc2c[nH]nc2-c2ccc(OCc3ccncc3)cc2O)cc1 [NUCC-0176254] | remaining activity at 200 µM (EMSA, 200 uM test compound): 101% |
| – | Oc1cc(OCc2ccccc2)ccc1-c1n[nH]cc1Oc1ccccc1 [NUCC-0176255] | remaining activity at 200 µM (EMSA, 200 uM test compound): 11% |
| – | CCc1ccc(Oc2c[nH]nc2-c2ccc(OCC3CCCCC3)cc2O)cc1 [NUCC-0176256] | Bound DNA (%) (200uM) (EMSA, 200 uM test compound): 100%; % Fraction Bound (Table 1, concentration not printed in the table (FIG. 5 and 6 legends: 200 μM test compounds)): 9.1% |
| – | CCc1ccc(Oc2c[nH]nc2-c2ccc(OCc3ccc(F)cc3)cc2O)cc1 [NUCC-0176257] | remaining activity at 200 µM (EMSA, 200 uM test compound): 7% |
| – | CCc1ccc(Oc2c[nH]nc2-c2ccc(OCCc3ccc(F)cc3)cc2O)cc1 [NUCC-0176258] | remaining activity at 200 µM (EMSA, 200 uM test compound): 17% |
| – | Cc1[nH]nc(-c2ccc(OCc3ccc(F)cc3)cc2O)c1Oc1ccccc1 [NUCC-0176259] | remaining activity at 200 µM (EMSA, 200 uM test compound): 26% |
| – | CCc1ccc(Oc2cn(C)nc2-c2ccc(OCc3ccc(Cl)cc3)cc2O)cc1 [NUCC-0176260] | remaining activity at 200 µM (EMSA, 200 uM test compound): 113% |
| – | CCc1ccc(Oc2c[nH]nc2-c2ccc(OCCc3ccc(Cl)cc3)cc2O)cc1 [NUCC-0176261] | remaining activity at 200 µM (EMSA, 200 uM test compound): 25% |
| – | Cc1[nH]nc(-c2ccc(OCCc3ccc(Cl)cc3)cc2O)c1Oc1ccccc1 [NUCC-0176262] | remaining activity at 200 µM (EMSA, 200 uM test compound): 54% |
| 87% | CCc1ccc(Oc2c(-c3ccc(OCc4ccc(Cl)cc4)cc3O)n[nH]c2CC)cc1 [compound 0196282] | – |
| 4% | COc1ccc(-c2c(-c3ccc(OCc4ccc(Cl)cc4)cc3O)n[nH]c2C(F)(F)F)cc1OC [compound 0196283] | IC50: 49 µM |
| 59% | Cc1ccc(C)c(Oc2c[nH]nc2-c2ccc(OCc3ccc(Cl)cc3)cc2O)c1 [compound 0196284] | – |
| 118% | Cc1ccc(C)c(Oc2cn(C)nc2-c2ccc(OCc3ccc(Cl)cc3)cc2O)c1 [compound 0196285] | – |

| remaining activity at 100 µM (EMSA) | SMILES | further results |
| --- | --- | --- |
| 65% | Cc1ccc(C)c(Oc2c[nH]nc2-c2ccc(OCc3cccc(Cl)c3)cc2O)c1 [compound 0196286] | – |
| 115% | Cc1ccc(C)c(Oc2cn(C)nc2-c2ccc(OCc3cccc(Cl)c3)cc2O)c1 [compound 0196287] | – |
| 81% | COc1cccc(COc2ccc(-c3n[nH]cc3Oc3cc(C)ccc3C)c(O)c2)c1 [compound 0196288] | – |
| 136% | COc1cccc(COc2ccc(-c3nn(C)cc3Oc3cc(C)ccc3C)c(O)c2)c1 [compound 0196289] | – |
| 92% | Cc1ccc(C)c(Oc2c[nH]nc2-c2ccc(OCc3ccc4ccccc4c3)cc2O)c1 [compound 0196290] | – |
| 110% | Cc1ccc(C)c(Oc2cn(C)nc2-c2ccc(OCc3ccc4ccccc4c3)cc2O)c1 [compound 0196291] | – |
| 106% | CCc1ccc(Oc2c(-c3ccc(OCc4ccc(Cl)cc4)cc3O)nn(C)c2CC)cc1 [compound 0196294] | – |
| 12% | CCc1ccc(Oc2c(-c3ccc(OCc4cccc(Cl)c4)cc3O)n[nH]c2C(F)(F)F)cc1 [compound 0196295] | IC50: 66 µM |
| 73% | CCc1ccc(Oc2c(-c3ccc(OCc4cccc(Cl)c4)cc3O)nn(C)c2C(F)(F)F)cc1 [compound 0196296] | – |
| 45% | CCc1ccc(Oc2c(-c3ccc(OCc4cccc(OC)c4)cc3O)n[nH]c2C(F)(F)F)cc1 [compound 0196297] | – |
| 98% | CCc1ccc(Oc2c(-c3ccc(OCc4cccc(OC)c4)cc3O)nn(C)c2C(F)(F)F)cc1 [compound 0196298] | – |
| 138% | Cc1ccc(C)c(Oc2cn(C)nc2-c2ccc(OCCN3CCCCC3)cc2O)c1 [compound 0196299] | – |
| 43% | Oc1cc(OCc2ccc(Cl)cc2)ccc1-c1n[nH]c(C(F)(F)F)c1Oc1cccc(F)c1 [compound 0196301] | – |
| 65% | Cn1nc(-c2ccc(OCc3ccc(Cl)cc3)cc2O)c(Oc2cccc(F)c2)c1C(F)(F)F [compound 0196302] | – |
| 72% | Oc1cc(OCc2ccc(Cl)cc2)ccc1-c1n[nH]cc1Oc1ccc(Cl)cc1 [compound 0196303] | – |
| 13% | Cn1nc(-c2ccc(OCc3ccc(Cl)cc3)cc2O)c(Oc2ccccc2Cl)c1C(F)(F)F [compound 0196304] | – |
| 3% | Cn1cc(Oc2ccccc2Cl)c(-c2ccc(OCc3ccc(Cl)cc3)cc2O)n1 [compound 0196305] | IC50: 39 µM |
| 71% | COc1ccc(-c2c(-c3ccc(OCc4ccc(Cl)cc4)cc3O)noc2C(F)(F)F)cc1OC [compound 0196306] | – |
| 94% | COc1ccc(-c2c(-c3ccc(OCc4ccc(Cl)cc4)cc3O)nn(C)c2C(F)(F)F)cc1OC [compound 0196311] | – |
| 51% | COc1ccc(-c2c(-c3ccc(OCc4ccc(Cl)cc4)cc3O)n[nH]c2C(F)(F)F)cc1 [compound 0196312] | – |
| 1% | Oc1cc(OCc2ccc(Cl)cc2)ccc1-c1cc(C(F)(F)F)[nH]n1 [compound 0196313] | – |
| 76% | Cn1nc(-c2ccc(OCc3ccc(Cl)cc3)cc2O)cc1C(F)(F)F [compound 0196314] | – |

| remaining activity at 100 µM (EMSA) | SMILES | further results |
| --- | --- | --- |
| 35% | COc1ccc(-c2c(-c3ccc(OCc4ccc(Cl)cc4)cc3O)nn(C)c2C(F)(F)F)cc1 [compound 0196340] | – |
| 154% | Cn1nc(-c2ccc(OCCN3CCOCC3)cc2O)c(Oc2ccccc2Cl)c1C(F)(F)F [compound 0196341] | – |
| 1% | Oc1cc(OCc2ccc(Cl)cc2)ccc1-c1n[nH]c(C(F)(F)F)c1Oc1ccccc1Cl [compound 0196342] | – |
| 48% | Oc1cc(OCc2ccc(Cl)cc2)ccc1-c1n[nH]cc1Oc1ccccc1Cl [compound 0196343] | – |
| 16% | Cc1ccc(-c2c(-c3ccc(OCc4ccc(Cl)cc4)cc3O)n[nH]c2C(F)(F)F)cc1 [compound 0196344] | – |
| 102% | Cc1ccc(-c2c[nH]nc2-c2ccc(OCc3ccc(Cl)cc3)cc2O)cc1 [compound 0196345] | – |
| 114% | Cc1ccc(-c2cn(C)nc2-c2ccc(OCc3ccc(Cl)cc3)cc2O)cc1 [compound 0196346] | – |
| 47% | Oc1cc(OCc2ccc(Cl)cc2)ccc1-c1n[nH]c(C(F)(F)F)c1-c1ccc(F)cc1 [compound 0196347] | – |
| 9% | Cn1nc(-c2ccc(OCc3ccc(Cl)cc3)cc2O)c(-c2ccc(F)cc2)c1C(F)(F)F [compound 0196348] | – |
| 135% | Cn1cc(-c2ccc(F)cc2)c(-c2ccc(OCc3ccc(Cl)cc3)cc2O)n1 [compound 0196349] | – |
| 18% | Oc1cc(OCc2ccc(Cl)cc2)ccc1-c1n[nH]cc1-c1cccc(Cl)c1 [compound 0196350] | – |
| 130% | Cn1cc(-c2cccc(Cl)c2)c(-c2ccc(OCc3ccc(Cl)cc3)cc2O)n1 [compound 0196351] | – |
| 65% | CCc1ccc(Oc2c(-c3ccc(OCc4ccc(Cl)cc4)cc3OC)nn(C)c2C(F)(F)F)cc1 [compound 0196352] | – |
| 122% | CCc1ccc(Oc2c(-c3ccc(OCc4ccc(Cl)cc4)cc3)nn(C)c2C(F)(F)F)cc1 [compound 0196353] | – |
| 82% | CCc1ccc(Oc2c(-c3ccc(OCc4ccc(Cl)c(Cl)c4)cc3O)nn(C)c2C(F)(F)F)cc1 [compound 0196354] | – |
| 25% | CCc1ccc(Oc2c(-c3ccc(OCc4ccc(Cl)c(Cl)c4)cc3O)n[nH]c2C(F)(F)F)cc1 [compound 0196355] | – |
| 68% | CCc1ccc(Oc2c(-c3ccc(OCCc4ccc(Cl)cc4)cc3O)nn(C)c2C(F)(F)F)cc1 [compound 0196356] | – |
| 28% | CCc1ccc(Oc2c(-c3ccc(OCCc4ccc(Cl)cc4)cc3O)n[nH]c2C(F)(F)F)cc1 [compound 0196357] | – |
| 98% | CCc1ccc(Oc2c(-c3ccc(OCc4ccc(OC)cc4)cc3O)nn(C)c2C(F)(F)F)cc1 [compound 0196358] | – |
| 57% | CCc1ccc(Oc2c(-c3ccc(OCc4ccc(OC)cc4)cc3O)n[nH]c2C(F)(F)F)cc1 [compound 0196359] | – |
| 100% | Cn1nc(-c2ccc(OCc3ccc(Cl)cc3)cc2O)c(-c2cc(C(F)(F)F)cc(C(F)(F)F)c2)c1C(F)(F)F [compound 0196360] | – |
| 0% | Cn1nc(C(F)(F)F)c(-c2cc(C(F)(F)F)cc(C(F)(F)F)c2)c1-c1ccc(OCc2ccc(Cl)cc2)cc1O [compound 0196361] | – |
